What was measured:
TgIMPα [1] = biological target: T1, TgIMPα (Toxoplasma gondii, UniProt A0A125YID0); assay: AlphaScreen, inhibition of IMPα:NLS interaction; type: binding
T1 sequence (A0A125YID0 1-545): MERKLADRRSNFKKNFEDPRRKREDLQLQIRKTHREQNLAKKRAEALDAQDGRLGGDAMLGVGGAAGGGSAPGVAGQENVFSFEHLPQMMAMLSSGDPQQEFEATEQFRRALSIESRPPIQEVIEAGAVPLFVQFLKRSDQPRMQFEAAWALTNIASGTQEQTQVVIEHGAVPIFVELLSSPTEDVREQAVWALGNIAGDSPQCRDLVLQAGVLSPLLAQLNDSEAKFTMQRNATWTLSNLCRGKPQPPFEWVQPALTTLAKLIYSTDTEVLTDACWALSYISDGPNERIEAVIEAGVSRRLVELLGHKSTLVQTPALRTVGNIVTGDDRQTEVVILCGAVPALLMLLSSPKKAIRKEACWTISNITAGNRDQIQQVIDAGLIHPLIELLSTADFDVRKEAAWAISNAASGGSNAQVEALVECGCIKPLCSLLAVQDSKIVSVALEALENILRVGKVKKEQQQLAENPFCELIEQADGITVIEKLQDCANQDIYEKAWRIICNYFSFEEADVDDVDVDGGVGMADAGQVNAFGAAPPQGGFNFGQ

TgIMPα [2] = biological target: T1, TgIMPα; assay: intrinsic tryptophan fluorescence quenching; type: binding
T. gondii = assay: microbe, parasite or virus in culture; design: species or system T. gondii RH-luciferase in HFF; conditions: Toxoplasma gondii, read-out: Cell viability IC50 (µM)
PfIMPα = biological target: T2, PfIMPα (Plasmodium falciparum, UniProt Q8IAW0); assay: intrinsic tryptophan fluorescence quenching; type: binding
T2 sequence (Q8IAW0 1-545): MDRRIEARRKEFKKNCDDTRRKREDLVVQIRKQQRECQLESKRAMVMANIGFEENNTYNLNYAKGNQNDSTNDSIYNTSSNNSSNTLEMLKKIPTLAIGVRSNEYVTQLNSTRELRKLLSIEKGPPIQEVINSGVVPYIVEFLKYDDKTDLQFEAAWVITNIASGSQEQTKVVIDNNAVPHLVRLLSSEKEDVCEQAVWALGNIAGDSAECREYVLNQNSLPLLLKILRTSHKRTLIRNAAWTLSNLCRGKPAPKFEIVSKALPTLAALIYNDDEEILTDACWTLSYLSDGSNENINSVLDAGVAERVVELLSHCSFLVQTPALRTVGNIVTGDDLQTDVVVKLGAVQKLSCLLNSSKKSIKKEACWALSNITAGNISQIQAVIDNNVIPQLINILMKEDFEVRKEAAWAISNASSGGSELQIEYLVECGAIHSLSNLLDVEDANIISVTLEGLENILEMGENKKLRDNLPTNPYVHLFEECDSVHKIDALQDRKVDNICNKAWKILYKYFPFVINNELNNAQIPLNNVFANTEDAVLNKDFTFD

Row | IC50 (PfIMPα) [µM] | Compound | IC50 (TgIMPα [1]) [µM] | IC50 (TgIMPα [2]) [µM] | IC50 (T. gondii) [µM]
1 |  | Cc1ccc(S(=O)(=O)/C=C/C#N)cc1 [Bay 11-7082] | 8.2 ± 1.3 | 17.5 ± 3.3 | 1.06 ± 0.07
2 | 19.9 ± 3.7 | CC(C)(C)c1ccc(S(=O)(=O)/C=C/C#N)cc1 [Bay 11-7085] |  | 27.7 ± 9.4 | 

From publication doi:10.1101/2024.07.10.602875v1 (biorxiv, 2024)
